Measured values from patent publication US20070004791A1, “3,6-disubstituted azabicyclo {3.1.0} hexane derivatives useful as muscarnic receptor antagonists” (priority 2002, published 2007).
Where a name gives a salt, the structure may show the parent alone.

How the values were obtained:
M2 muscarinic receptor = target: T1, M2 muscarinic receptor (Rattus norvegicus, UniProt P10980); test: biochemical; assay type: binding; conditions: for Ki: Receptor Binding Assay M2 pKi
T1 construct: Submandibular glands and heart were isolated and placed in ice cold homogenising buffer; from tissue; host or cells: rat heart membrane homogenate
T1 sequence (P10980 1-466): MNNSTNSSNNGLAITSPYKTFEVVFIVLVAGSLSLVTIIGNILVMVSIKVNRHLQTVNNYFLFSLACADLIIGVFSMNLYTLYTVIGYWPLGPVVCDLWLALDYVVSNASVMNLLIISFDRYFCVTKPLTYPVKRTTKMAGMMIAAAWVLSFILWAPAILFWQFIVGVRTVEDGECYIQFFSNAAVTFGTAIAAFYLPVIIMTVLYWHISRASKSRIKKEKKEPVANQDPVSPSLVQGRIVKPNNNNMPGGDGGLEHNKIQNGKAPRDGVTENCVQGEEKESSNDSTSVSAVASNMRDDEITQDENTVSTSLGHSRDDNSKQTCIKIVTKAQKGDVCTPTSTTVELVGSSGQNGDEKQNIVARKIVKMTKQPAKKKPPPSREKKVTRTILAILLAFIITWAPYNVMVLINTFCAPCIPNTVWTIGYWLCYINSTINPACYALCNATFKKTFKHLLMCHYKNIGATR

M3 muscarinic receptor [1] = target: T2, M3 muscarinic receptor (Rattus norvegicus, UniProt P08483)
T2 sequence (P08483 whole entry): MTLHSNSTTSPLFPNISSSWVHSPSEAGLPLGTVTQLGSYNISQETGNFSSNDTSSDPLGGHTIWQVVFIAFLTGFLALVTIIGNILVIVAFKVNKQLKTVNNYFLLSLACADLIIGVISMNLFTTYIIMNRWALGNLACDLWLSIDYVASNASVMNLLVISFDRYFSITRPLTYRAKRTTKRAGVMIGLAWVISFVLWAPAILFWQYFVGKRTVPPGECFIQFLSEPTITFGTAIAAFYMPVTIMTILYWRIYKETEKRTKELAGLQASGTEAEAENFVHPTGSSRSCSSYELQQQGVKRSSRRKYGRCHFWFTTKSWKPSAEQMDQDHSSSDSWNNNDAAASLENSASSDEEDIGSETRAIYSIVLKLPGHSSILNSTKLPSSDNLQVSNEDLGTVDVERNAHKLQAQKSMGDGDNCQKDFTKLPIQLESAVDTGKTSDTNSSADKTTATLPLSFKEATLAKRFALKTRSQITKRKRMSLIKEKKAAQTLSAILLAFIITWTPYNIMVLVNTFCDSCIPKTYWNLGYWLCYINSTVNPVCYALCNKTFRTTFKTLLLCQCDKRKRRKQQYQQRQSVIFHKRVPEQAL

M3 muscarinic receptor [2] = target: T2, M3 muscarinic receptor; test: biochemical; conditions: Receptor Binding Assay M3 pKi

Compound	Ki (M2 muscarinic receptor)	Receptor Binding Assay Selectivity M2/M3 (M3 muscarinic receptor [1])	Ki (M3 muscarinic receptor [2])	Receptor Binding Assay M2 pKi (M2 muscarinic receptor)	Receptor Binding Assay M3 pKi (M3 muscarinic receptor [1])
CC(C)=CCCN1C[C@@H]2[C@@H](CNC(=O)C(O)(c3ccccc3)C3CCCCC3)[C@@H]2C1 (stereo partly drawn) [Compound No. 15, (1α,5α,6α)-N-[3-(4-methyl-3-pentenyl)-3-azabicyclo[3.1.0]hexyl-6-(aminomethyl)-yl]-2-hydroxy-2-cyclohexyl-2-phenyl acetamide]	257 nM	19	13.5 nM		
O=C(NC[C@@H]1[C@H]2CN(Cc3ccccc3)C[C@@H]12)C(O)(c1ccccc1)C1CCCC1 (stereo partly drawn) [Compound No. 62, (1α,5α,6α)-N-[3-benzyl-3-azabicyclo[3.1.0]-hexyl-6-(aminomethyl)-yl]-2-hydroxy-2-cyclopentyl-2-phenyl acetamide. Maleate salt]	52.5 nM		6.76 nM		
O=C(NC[C@@H]1[C@H]2CN(Cc3ccccc3)C[C@@H]12)[C@@](O)(c1ccccc1)C1CCCC1 [Compound No. 32, (2S)-(−)(1α,5α,6α)-N-[3-benzyl-3-azabicyclo[3.1.0]hexyl-6-(aminomethyl)-yl]-2-hydroxy-2-cyclopentyl-2-phenyl acetamide]	631 nM	28	22.4 nM		
CC(c1ccccc1)N1CC2C(CNC(=O)C(O)(c3ccccc3)C3CCCC3)C2C1 (stereo not drawn) [Compound No. 22, (1α,5α,6α)-N-[3-(1-phenylethyl)-3-azabicyclo[3.1.0]hexyl-6-(aminomethyl)-yl]-2-hydroxy-2-cyclopentyl-2-phenyl acetamide]	87.1 nM	14.8	5.89 nM		
(1α,5α,6α)-N-[3-(2-pyridylmethyl)-3-azabicyclo[3.1.0]hexyl-6-(aminomethyl)-yl]-2-hydroxy-2-cyclopentyl-2-phenylacetamide [Compound No. 47]				6.15	7.42
(1α,5α,6α)-N-[3-(2-(3,4-methylenedioxyphenyl)ethyl)-3-azabicyclo[3.1.0]hexyl-6-(aminomethyl)-yl]-2-hydroxy-2-cyclopentyl-2-phenyl acetamide [Compound No. 13]		6.3		6.48	7.28
CC(c1ccccc1)N1CC2C(CNC(=O)C(O)(c3ccccc3)C3CCCCC3)C2C1 (stereo not drawn) [Compound No. 21, (1α,5α,6α)-N-[3-(1-phenylethyl)-3-azabicyclo[3.1.0]hexyl-6-(aminomethyl)-yl]-2-hydroxy-2-cyclohexyl-2-phenyl acetamide]	257 nM	17	15.1 nM		
O=C(NCC1C2CN(Cc3ccccc3)CC12)C(O)(c1ccccc1)C1CCCCC1 (single isomer, unassigned) [Compound No. 28]	14.1 nM	3.5	3.98 nM		
O=C(NCC1C2CN(CCc3ccc4c(c3)CCO4)CC12)C(O)(c1ccccc1)C1CCCC1 (stereo not drawn) [Compound No. 10, (1α,5α,6α)-N-[3-(2-(2,3-dihydrobenzofuran-5-yl)ethyl)-3-azabicyclo[3.1.0]hexyl-6-(aminomethyl)-yl]-2-hydroxy-2-cyclopentyl-2-phenyl acetamide]	339 nM	10.47	32.4 nM		
O=C(NCC1C2CN(Cc3ccccc3)CC12)C(O)(c1ccccc1)C1CCCCC1 (stereo not drawn) [Compound No. 2, (1α,5α,6α)-N-[3-benzyl-3-azabicyclo[3.1.0]hexyl-6-(aminomethyl)-yl]-2-hydroxy-2-cyclohexyl-2-phenyl acetamide]	141 nM	25	5.62 nM		
O=C(NC[C@@H]1[C@H]2CN(Cc3cccnc3)C[C@@H]12)C(O)(c1ccccc1)c1ccccc1 [Compound No. 49, (1α,5α,6α)-N-[3-(3-pyridylmethyl)-3-azabicyclo[3.1.0]hexyl-6-(aminomethyl)-yl]-2-hydroxy-2,2-diphenylacetamide]	> 1000 nM		69.2 nM		
O=C(NC[C@@H]1[C@H]2CN(Cc3cccnc3)C[C@@H]12)C(O)(c1ccccc1)C1CCCCC1 (stereo partly drawn) [Compound No. 45, (1α,5α,6α)-N-[3-(3-pyridylmethyl)-3-azabicyclo[3.1.0]hexyl-6-(aminomethyl)-yl]-2-hydroxy-2-cyclohexyl-2-phenyl acetamide]	> 1000 nM		234 nM		
O=C(NC[C@@H]1[C@H]2CN(Cc3ccccc3)C[C@@H]12)[C@](O)(c1ccccc1)C1CCCC1 [Compound No. 29, (2R)-(+)-(1α,5α,6α)-N-[3-benzyl-3-azabicyclo[3.1.0]hexyl-6-(aminomethyl)-yl]-2-hydroxy-2-cyclopentyl-2-phenyl acetamide]	12.3 nM	11.2	1.1 nM		
O=C(NCC1C2CN(Cc3ccccc3)CC12)C(O)(c1ccccc1)C1CCCC1 [Compound No. 34, (1α,5α,6α)-N-[3-benzyl-3-azabicyclo[3.1.0]hexyl-6-(aminomethyl)-yl]-2-hydroxy-2-cyclopentyl-2-phenyl acetamide L-(+)-tartrate salt]	60.3 nM	8	5.89 nM		
O=C(NCC1C2CN(Cc3ccccc3)CC12)C(O)(c1ccccc1)C1CCCC1 (stereo not drawn) [Compound No. 61, (1α,5α,6α)-N-[3-benzyl-3-azabicyclo[3.1.0]-hexyl-6-(aminomethyl)-yl]-2-hydroxy-2-cyclopentyl-2-phenyl acetamide. L(−) malic acid salt]	43.7 nM		5.13 nM		
CC(NC(=O)C(O)(c1ccccc1)C1CCCC1)[C@H]1[C@@H]2CN(Cc3ccccc3)C[C@@H]21 (stereo partly drawn) [Compound No. 25, (1α,5α,6α)-N-[3-benzyl-3-azabicyclo[3.1.0]hexyl-6-(1-aminoethyl)-yl]-2-hydroxy-2-cyclopentyl-2-phenyl acetamide]	427 nM	17	25.1 nM		
O=C(NC[C@@H]1[C@H]2CN(Cc3ccccc3)C[C@@H]12)C(O)(c1ccccc1)C1CC1 (stereo partly drawn) [Compound No. 38, (1α,5α,6α)-N-[3-benzyl-3-azabicyclo[3.1.0]hexyl-6-(aminomethyl)-yl]-2-hydroxy-2-cyclopropyl-2-phenylacetamide]	427 nM	6.6	64.6 nM		
O=C(NC[C@@H]1[C@H]2CN(Cc3ccccc3)C[C@@H]12)C(O)(c1ccccc1)C1CCC1 (stereo partly drawn) [Compound No. 37, (1α,5α,6α)-N-[3-benzyl-3-azabicyclo[3.1.0]hexyl-6-(aminomethyl)-yl]-2hydroxy-2-cyclobutyl-2-phenylacetamide]	57.5 nM	8	5.89 nM		
CC(NC(=O)C(O)(c1ccccc1)c1ccccc1)[C@H]1[C@@H]2CN(Cc3ccccc3)C[C@@H]21 (stereo partly drawn) [Compound No. 23, (1α,5α,6α)-N-[3-benzyl-3-azabicyclo[3.1.0]hexyl-6-(1-aminoethyl)-yl]-2-hydroxy-2,2-diphenyl acetamide]	589 nM	3.7	158 nM		
O=C(NC[C@@H]1[C@H]2CN(Cc3ccncc3)C[C@@H]12)C(O)(c1ccccc1)C1CCCC1 (stereo partly drawn) [Compound No. 48, (1α,5α,6α)-N-[3-(4-pyridylmethyl)-3-azabicyclo[3.1.0]hexyl-6-(aminomethyl)-yl]-2-hydroxy-2-cyclopentyl-2-phenylacetamide]	> 1000 nM		72.4 nM		
(1α,5α,6α)-N-[3-(2-(3,4-methylenedioxyphenyl)ethyl)-3-azabicyclo[3.1.0]hexyl-6-(aminomethyl)-yl]-2-hydroxy-2-cyclohexyl-2-phenyl acetamide [Compound No. 14]		10.5		5.7	6.72
O=C(NC[C@@H]1[C@H]2CN(Cc3ccncc3)C[C@@H]12)C(O)(c1ccccc1)c1ccccc1 [Compound No. 50, (1α,5α,6α)-N-[3-(4-pyridylmethyl)-3-azabicyclo[3.1.0]hexyl-6-(aminomethyl)-yl]-2-hydroxy-2,2-diphenyl acetamide]	> 1000 nM		115 nM		
O=C(NCC1C2CN(Cc3ccccc3)CC12)C(O)(c1ccccc1)C1CCCC1 (stereo not drawn) [Compound No. 60, (1α,5α,6α)-N-[3-benzyl-3-azabicyclo[3.1.0]-hexyl-6-(aminomethyl)-yl]-2-hydroxy-2-cyclopentyl-2-phenyl acetamide hydrochloride salt]	49 nM		5.25 nM		
O=C(NC[C@@H]1[C@H]2CN(CCc3ccc4c(c3)CCO4)C[C@@H]12)C(O)(c1ccccc1)C1CCCCC1 (stereo partly drawn) [Compound No. 9, (1α,5α,6α)-N-[3-(2-(2,3-dihydrobenzofuran-5-yl)ethyl)-3-azabicyclo[3.1.0]hexyl-6-(aminomethyl)-yl]-2-hydroxy-2-cyclohexyl-2-phenyl acetamide]	257 nM	6.6	38.9 nM		
O=C(NCC1C2CN(Cc3ccncc3)CC12)C(O)(c1ccccc1)C1CCCCC1 (stereo not drawn) [Compound No. 46, (1α,5α,6α)-N-[3-(4pyridylmethyl)-3-azabicyclo[3.1.0]hexyl-6-(aminomethyl)-yl]-2-hydroxy-2-cyclohexyl-2-phenylacetamide]	> 1000 nM		67.6 nM		
